“And” between values parts separate entries of the source, which are not always exact repeats. Equal entries are not always repeated. Where two headings read alike, the source gives them in different places.
Molecular target: T1, OX2R T111S/T135A (Homo sapiens, UniProt O43614, T111S/T135A)
T1 construct: FLAG; expressed in transfected cells; host or cells: HEK293
T1 sequence (O43614 1-444 T111S/T135A): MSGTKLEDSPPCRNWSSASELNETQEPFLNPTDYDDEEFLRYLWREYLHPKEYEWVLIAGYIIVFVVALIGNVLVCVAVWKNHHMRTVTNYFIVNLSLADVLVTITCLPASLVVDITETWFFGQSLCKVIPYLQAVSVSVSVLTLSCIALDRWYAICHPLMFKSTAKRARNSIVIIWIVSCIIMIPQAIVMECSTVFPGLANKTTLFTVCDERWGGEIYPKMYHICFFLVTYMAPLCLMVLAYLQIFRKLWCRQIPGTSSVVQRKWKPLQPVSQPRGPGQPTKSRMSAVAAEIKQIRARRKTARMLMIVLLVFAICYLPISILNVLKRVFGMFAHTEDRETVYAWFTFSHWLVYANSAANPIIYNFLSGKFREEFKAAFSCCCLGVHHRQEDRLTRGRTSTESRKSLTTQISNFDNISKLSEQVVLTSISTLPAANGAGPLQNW
Test: IP accumulation assay, OX2R T111S/T135A
Type: cell-based
Conditions: for EC50: IP accumulation
Text: The IP assay was adapted from a prior precedent. HEK293 cells were maintained in DMEM-high glucose (Millipore Sigma) supplemented with 5% fetal bovine serum (Corning) and penicillin-streptomycin (Millipore Sigma). Receptor constructs used were the full-length wild-type (or mutant) human OX1R and OX2R sequences cloned into pCDNA3. To enhance the Emax in the IP assay, a plasmid encoding full-length human Gαq subunit[66] was co-transfected into HEK293 cells with plasmids encoding orexin receptor constructs using Lipofectamine 3000 (Thermo Fisher). 24 h after transfection, the cells were plated on poly-D-lysine coated (Millipore Sigma) tissue culture-treated 96 well white plates with clear bottoms (Perkin Elmer) at 30,000 cells per well in Inositol-free DMEM (MP Biomedicals) supplemented with 5% fetal bovine serum, 4 mM L-glutamine (Millipore Sigma), penicillin-streptomycin, and about 5 uCi (5 ul) per ml myo-[2-3H] inositol (Perkin Elmer). The following day, the media was replaced with agonists that were diluted in HBSS (Millipore Sigma) containing 10 mM lithium chloride (Millipore Sigma) and incubated at 37 °C for 45 min. Then agonists were removed and cells were lysed on ice for 30 min with 10 mM formic acid (Millipore Sigma). 1.25 mg of poly-lysine coated YSI SPA beads (Perkin Elmer) was added to each well. The plates were mixed on an orbital shaker for 30 min. The plates were read on a MicroBeta scintillation counter (Perkin Elmer) the following day. IP accumulation assays on different constructs were performed in n ≥ 3 independent experiments (each done in duplicate), where n is shown in Supplementary Table 2.

With COC(=O)N1CCC[C@H](NS(C)(=O)=O)[C@@H]1CO[C@H]1CC[C@@H](c2ccccc2)CC1 [TAK-925, methyl (2R,3S)−3-[(methylsulfonyl)amino]−2-{[(cis−4-phenylcyclohexyl)oxy]methyl}piperidine-1-carboxylate] the EC50 (pEC50 ± SEM, read-out: pEC50 (converted)) was 3.98 µM, the EC50 (read-out: EC50) was 3.6 µM and the “% IP accumulation” value (TAK-925 conc (log, M) -4.00) was 75.61% and 80.32% and 68.16%. For the same compound, the “% IP accumulation” value (TAK-925 conc (log, M) -4.48) was 79.41% and 78.58% and 59.24%, the “% IP accumulation” value (TAK-925 conc (log, M) -4.95) was 63.00% and 60.94% and 53.37% and the “% IP accumulation” value (TAK-925 conc (log, M) -5.43) was 45.74% and 44.90% and 36.03%. The “% IP accumulation” value (TAK-925 conc (log, M) -5.91) was 30.51% and 19.14% and 15.90%, the “% IP accumulation” value (TAK-925 conc (log, M) -6.39) was 18.69% and 18.10% and 13.23% and the “% IP accumulation” value (TAK-925 conc (log, M) -8.29) was 6.54% and 0.00%. For the same compound, the “% IP accumulation” value (TAK-925 conc (log, M) -8.77) was 0.00% and 2.28% and 1.85% and the Emax (relative to OX2R WT/TAK-925) was 78.

— paper PMC9133036 (Nature Communications, 2022)
